ChEMBL document CHEMBL1933021, “Novel and selective spiroindoline-based inhibitors of Sky kinase” (Bioorg Med Chem Lett, 2012)
In brackets after ≈: the same amount, converted by molar mass.

Tests used:
[1] = target: Cyclin-dependent kinase 2 (Homo sapiens, UniProt P24941); assay: Inhibition of Cdk2
[2] = target: T1, Serine/threonine-protein kinase Chk1 (Homo sapiens, UniProt O14757); assay: Inhibition of Chk1
T1 sequence (O14757 whole entry): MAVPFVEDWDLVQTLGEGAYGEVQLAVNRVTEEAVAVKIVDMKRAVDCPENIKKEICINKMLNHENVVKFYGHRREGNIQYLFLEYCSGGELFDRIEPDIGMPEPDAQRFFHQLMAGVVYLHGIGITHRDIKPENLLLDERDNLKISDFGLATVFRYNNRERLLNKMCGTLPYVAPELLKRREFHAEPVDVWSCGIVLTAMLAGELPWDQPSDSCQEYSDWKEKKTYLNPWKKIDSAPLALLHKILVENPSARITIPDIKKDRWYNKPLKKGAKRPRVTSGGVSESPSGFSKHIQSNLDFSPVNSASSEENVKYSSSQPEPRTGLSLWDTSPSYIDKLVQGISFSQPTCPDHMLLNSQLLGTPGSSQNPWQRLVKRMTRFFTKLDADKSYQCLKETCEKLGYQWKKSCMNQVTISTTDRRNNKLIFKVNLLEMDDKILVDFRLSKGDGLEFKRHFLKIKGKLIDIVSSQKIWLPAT

[3] = target: Serine/threonine-protein kinase Chk2 (Homo sapiens, UniProt O96017); assay: Inhibition of Chk2
[4] = target: T2, Inhibitor of nuclear factor kappa-B kinase subunit epsilon (Homo sapiens, UniProt Q14164); assay: Inhibition of IKKi
T2 sequence (Q14164 whole entry): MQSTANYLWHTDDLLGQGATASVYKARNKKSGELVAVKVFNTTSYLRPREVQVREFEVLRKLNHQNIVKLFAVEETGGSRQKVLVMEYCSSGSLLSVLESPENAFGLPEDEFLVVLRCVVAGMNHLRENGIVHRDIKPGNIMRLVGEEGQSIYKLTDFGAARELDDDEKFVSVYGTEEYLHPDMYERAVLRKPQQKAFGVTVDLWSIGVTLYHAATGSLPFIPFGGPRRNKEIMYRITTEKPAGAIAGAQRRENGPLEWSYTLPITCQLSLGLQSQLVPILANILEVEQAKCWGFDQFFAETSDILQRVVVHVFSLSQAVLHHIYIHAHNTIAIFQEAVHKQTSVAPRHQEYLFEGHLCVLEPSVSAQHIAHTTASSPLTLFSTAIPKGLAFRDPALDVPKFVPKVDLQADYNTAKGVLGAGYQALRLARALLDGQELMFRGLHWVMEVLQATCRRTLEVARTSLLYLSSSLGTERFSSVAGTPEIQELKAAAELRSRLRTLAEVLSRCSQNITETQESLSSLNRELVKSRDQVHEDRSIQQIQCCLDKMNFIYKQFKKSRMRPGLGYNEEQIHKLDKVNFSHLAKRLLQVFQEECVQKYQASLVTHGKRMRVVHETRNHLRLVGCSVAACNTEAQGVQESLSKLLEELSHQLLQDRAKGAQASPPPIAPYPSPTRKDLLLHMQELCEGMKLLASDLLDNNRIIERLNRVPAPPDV

[5] = target: Tyrosine-protein kinase Lck (Homo sapiens, UniProt P06239); assay: Inhibition of Lck
[6] = target: MAP kinase-activated protein kinase 2 (Homo sapiens, UniProt P49137); assay: Inhibition of MAPKAP-2
[7] = target: Serine/threonine-protein kinase PAK 4 (Homo sapiens, UniProt O96013); assay: Inhibition of Pak4
[8] = Inhibition of p38
[9] = target: Fibroblast growth factor receptor 1 (Homo sapiens, UniProt P11362); assay: Inhibition of FGFR1
[10] = target: Hepatocyte growth factor receptor (Homo sapiens, UniProt P08581); assay: Inhibition of HGFR
[11] = target: T3, Tyrosine-protein kinase receptor UFO (Homo sapiens, UniProt P30530); assay: Inhibition of Axl
T3 sequence (P30530 whole entry): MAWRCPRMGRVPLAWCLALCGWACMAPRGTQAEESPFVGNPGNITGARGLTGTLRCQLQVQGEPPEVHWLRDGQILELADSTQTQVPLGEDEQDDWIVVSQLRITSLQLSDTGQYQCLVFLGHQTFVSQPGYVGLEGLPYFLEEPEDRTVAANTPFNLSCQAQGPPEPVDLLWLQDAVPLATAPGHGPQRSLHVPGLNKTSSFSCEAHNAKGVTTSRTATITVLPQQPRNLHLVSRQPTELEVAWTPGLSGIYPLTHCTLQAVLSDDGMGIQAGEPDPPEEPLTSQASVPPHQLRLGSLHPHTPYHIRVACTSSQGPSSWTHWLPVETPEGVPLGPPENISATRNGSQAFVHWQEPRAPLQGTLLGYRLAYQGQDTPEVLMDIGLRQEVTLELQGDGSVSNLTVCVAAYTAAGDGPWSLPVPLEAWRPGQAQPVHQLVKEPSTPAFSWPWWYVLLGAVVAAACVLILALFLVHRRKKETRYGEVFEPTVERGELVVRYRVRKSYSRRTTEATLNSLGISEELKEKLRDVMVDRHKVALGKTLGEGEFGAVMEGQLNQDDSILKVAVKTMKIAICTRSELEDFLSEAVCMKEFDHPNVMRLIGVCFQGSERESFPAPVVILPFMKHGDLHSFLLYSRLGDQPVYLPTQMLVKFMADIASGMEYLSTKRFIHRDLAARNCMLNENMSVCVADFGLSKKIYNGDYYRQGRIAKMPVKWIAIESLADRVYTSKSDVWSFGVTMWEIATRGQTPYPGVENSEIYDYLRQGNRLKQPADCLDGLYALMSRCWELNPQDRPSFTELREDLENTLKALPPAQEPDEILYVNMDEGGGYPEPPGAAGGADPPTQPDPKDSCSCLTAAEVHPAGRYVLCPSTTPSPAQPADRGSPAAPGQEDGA

[12] = Aqueous solubility of compound at pH 6.5; type: physicochemical
[13] = Half life in human liver microsomes; type: ADME, Microsome
[14] = Clearance in po dosed Sprague-Dawley rat; type: ADME, organism-based; conditions: in vivo
Rattus norvegicus = assay: Volume of distribution at steady state in po dosed Sprague-Dawley rat; type: ADME, organism-based; conditions: in vivo
[15] = Oral bioavailability in Sprague-Dawley rat; type: ADME, organism-based; conditions: in vivo
[16] = Permeability across human Caco2 cells; type: ADME, cell-based; conditions: Caco-2, read-out: permeability
CYP2D6 = CYP2D6 (Homo sapiens, UniProt P10635); assay: Inhibition of CYP2D6 using dextromethorphan as substrate at 3 uM; type: ADME; conditions: probe dextromethorphan
[17] = target: RAC-alpha serine/threonine-protein kinase (Homo sapiens, UniProt P31749); assay: Inhibition of AKT1
Aurora kinase A = Aurora kinase A (Homo sapiens, UniProt O14965); assay: Inhibition of Aurora-A
Insulin receptor = Insulin receptor (Homo sapiens, UniProt P06213); assay: Inhibition of INSR
[18] = target: Mitogen-activated protein kinase 1 (Homo sapiens, UniProt P28482); assay: Inhibition of Erk2
[19] = target: High affinity nerve growth factor receptor (Homo sapiens, UniProt P04629); assay: Inhibition of TrkA
[20] = target: Vascular endothelial growth factor receptor 2 (Homo sapiens, UniProt P35968); assay: Inhibition of VEGFR2

Sequence of Serine/threonine-protein kinase Chk2 (O96017 whole entry): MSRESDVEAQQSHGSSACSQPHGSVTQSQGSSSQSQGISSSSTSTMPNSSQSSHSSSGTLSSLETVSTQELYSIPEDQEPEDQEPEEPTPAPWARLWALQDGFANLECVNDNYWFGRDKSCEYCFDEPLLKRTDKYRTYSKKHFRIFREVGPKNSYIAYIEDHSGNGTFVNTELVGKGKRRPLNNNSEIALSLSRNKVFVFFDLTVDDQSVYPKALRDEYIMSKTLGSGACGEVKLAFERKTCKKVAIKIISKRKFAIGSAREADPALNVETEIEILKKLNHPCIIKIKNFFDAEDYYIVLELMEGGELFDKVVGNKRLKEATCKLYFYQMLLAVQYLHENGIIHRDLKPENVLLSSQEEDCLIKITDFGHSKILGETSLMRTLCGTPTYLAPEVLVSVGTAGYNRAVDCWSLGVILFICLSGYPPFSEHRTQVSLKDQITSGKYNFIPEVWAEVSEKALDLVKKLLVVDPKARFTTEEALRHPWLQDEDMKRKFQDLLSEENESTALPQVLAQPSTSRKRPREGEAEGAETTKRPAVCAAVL
Sequence of Fibroblast growth factor receptor 1 (P11362 whole entry): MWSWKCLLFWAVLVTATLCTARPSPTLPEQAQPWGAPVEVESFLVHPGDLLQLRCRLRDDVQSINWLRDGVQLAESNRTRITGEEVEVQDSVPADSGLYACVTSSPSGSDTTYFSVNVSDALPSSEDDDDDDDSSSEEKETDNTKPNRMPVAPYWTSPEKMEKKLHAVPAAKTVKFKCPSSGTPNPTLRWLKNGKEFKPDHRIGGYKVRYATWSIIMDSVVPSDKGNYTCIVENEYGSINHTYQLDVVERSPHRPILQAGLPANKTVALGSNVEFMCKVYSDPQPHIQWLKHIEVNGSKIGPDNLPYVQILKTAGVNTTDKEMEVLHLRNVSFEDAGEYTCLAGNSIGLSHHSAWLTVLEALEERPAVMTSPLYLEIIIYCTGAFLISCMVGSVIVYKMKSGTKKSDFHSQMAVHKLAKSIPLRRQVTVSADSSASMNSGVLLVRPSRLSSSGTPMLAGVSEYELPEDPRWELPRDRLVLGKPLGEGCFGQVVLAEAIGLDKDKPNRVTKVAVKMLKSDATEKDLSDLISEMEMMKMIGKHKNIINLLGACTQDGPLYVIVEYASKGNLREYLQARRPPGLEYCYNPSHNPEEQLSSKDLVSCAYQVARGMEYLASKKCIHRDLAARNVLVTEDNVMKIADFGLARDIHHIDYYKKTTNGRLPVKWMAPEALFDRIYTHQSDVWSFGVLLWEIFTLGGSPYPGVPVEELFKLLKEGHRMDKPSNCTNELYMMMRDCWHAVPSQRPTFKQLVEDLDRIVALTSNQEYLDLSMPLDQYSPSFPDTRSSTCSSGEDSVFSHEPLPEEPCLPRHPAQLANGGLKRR
Sequence of MAP kinase-activated protein kinase 2 (P49137 whole entry): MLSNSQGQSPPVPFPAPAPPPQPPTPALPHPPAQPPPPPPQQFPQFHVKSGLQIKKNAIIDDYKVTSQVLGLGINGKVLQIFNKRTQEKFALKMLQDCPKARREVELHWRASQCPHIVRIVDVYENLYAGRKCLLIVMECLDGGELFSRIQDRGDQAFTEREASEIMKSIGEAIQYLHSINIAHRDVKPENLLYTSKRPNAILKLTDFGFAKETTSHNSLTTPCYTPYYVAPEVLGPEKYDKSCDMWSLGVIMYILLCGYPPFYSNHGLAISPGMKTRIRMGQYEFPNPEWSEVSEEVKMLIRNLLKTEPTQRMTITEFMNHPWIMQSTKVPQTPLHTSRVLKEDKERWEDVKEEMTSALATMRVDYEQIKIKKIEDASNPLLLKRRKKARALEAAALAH
Sequence of Tyrosine-protein kinase Lck (P06239 whole entry): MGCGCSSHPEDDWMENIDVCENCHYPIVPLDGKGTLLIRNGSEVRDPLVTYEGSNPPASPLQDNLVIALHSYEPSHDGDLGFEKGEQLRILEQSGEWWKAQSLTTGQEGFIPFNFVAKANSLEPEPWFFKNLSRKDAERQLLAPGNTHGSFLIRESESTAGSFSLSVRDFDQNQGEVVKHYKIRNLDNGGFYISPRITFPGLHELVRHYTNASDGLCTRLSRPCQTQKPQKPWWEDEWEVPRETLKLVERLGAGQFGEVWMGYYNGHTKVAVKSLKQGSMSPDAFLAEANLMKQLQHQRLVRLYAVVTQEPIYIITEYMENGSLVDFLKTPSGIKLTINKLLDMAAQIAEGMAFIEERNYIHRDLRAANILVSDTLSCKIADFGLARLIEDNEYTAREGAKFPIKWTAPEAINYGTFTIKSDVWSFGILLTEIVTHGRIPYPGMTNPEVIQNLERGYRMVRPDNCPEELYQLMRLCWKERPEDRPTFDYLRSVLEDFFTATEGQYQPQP
Sequence of Serine/threonine-protein kinase PAK 4 (O96013 whole entry): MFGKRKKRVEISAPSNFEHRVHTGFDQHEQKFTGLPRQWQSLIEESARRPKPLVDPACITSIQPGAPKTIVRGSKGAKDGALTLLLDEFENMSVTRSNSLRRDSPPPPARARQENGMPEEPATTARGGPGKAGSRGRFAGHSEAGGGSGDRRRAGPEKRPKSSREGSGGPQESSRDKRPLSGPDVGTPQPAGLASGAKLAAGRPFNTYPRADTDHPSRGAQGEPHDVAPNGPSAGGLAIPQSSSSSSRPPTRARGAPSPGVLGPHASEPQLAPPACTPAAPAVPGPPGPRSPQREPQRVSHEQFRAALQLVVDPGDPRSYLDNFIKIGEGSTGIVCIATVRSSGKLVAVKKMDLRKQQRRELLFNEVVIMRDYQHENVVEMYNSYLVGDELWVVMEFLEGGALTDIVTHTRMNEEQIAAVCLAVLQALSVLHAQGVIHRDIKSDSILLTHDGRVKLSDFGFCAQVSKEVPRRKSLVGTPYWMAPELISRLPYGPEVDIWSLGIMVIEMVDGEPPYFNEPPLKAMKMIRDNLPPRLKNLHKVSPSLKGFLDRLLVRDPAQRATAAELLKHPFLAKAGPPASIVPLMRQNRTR
Sequence of Hepatocyte growth factor receptor (P08581 whole entry): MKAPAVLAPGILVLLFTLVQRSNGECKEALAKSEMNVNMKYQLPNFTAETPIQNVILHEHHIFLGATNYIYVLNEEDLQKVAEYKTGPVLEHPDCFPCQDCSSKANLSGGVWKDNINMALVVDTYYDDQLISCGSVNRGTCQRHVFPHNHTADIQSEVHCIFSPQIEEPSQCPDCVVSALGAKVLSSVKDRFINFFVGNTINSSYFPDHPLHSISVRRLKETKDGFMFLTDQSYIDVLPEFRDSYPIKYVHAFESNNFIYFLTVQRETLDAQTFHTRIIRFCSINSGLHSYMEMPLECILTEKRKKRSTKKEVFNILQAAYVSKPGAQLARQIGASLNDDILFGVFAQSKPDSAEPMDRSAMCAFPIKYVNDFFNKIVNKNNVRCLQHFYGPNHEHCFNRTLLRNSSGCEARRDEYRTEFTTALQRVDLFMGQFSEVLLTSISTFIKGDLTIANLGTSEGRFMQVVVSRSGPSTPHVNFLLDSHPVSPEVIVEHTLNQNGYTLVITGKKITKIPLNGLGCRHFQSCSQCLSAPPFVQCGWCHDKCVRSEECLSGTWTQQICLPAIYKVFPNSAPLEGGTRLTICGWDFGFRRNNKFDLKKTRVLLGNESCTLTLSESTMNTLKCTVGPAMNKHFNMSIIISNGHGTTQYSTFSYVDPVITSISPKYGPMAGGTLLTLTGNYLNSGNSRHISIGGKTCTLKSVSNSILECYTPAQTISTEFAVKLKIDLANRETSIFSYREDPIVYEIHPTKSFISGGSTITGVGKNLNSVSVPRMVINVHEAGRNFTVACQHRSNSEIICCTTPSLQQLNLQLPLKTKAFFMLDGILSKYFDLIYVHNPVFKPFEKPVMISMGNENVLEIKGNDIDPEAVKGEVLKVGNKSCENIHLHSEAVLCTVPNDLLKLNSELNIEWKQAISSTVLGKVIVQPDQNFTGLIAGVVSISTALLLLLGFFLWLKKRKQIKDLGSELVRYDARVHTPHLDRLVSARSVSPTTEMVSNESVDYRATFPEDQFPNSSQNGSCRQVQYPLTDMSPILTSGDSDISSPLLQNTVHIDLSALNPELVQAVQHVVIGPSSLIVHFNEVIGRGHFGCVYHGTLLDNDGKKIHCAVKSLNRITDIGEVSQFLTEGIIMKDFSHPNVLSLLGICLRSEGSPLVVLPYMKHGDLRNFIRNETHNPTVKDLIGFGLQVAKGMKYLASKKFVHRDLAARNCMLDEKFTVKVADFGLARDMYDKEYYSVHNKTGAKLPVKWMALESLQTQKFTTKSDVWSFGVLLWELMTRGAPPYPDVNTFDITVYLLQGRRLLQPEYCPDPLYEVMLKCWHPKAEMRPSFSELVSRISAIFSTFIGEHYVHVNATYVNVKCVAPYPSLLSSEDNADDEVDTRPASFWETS
Sequence of Aurora kinase A (O14965 whole entry): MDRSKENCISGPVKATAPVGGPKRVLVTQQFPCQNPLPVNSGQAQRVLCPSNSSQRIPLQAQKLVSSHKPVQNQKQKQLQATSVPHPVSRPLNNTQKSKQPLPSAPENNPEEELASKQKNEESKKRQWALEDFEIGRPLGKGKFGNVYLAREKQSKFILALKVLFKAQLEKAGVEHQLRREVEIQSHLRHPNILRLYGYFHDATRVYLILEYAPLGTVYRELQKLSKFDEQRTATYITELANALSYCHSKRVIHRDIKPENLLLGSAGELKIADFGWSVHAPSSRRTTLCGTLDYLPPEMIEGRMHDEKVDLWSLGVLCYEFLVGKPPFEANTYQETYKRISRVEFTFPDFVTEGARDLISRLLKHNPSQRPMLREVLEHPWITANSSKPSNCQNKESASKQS
Sequence of Mitogen-activated protein kinase 1 (P28482 whole entry): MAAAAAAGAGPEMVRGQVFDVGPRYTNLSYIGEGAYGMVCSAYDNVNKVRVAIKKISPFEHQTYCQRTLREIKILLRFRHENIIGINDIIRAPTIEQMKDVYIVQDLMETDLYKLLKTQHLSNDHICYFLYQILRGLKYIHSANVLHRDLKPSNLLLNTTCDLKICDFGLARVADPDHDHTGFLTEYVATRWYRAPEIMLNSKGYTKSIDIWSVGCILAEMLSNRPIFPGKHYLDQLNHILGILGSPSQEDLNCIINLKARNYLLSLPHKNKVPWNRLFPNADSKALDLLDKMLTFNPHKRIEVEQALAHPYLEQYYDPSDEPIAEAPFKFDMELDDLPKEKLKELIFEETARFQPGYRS

| IC50 [1] | IC50 [2] | IC50 [3] | IC50 [4] | IC50 [5] | IC50 [6] | IC50 [7] | IC50 [8] | IC50 [9] | IC50 [10] | IC50 [11] | solubility [12] | half-life [13] | SMILES | further results |
| --- | --- | --- | --- | --- | --- | --- | --- | --- | --- | --- | --- | --- | --- | --- |
| > 30 µM | > 30 µM | > 30 µM | > 30 µM | > 30 µM | > 30 µM | > 30 µM | > 30 µM | > 30 µM | > 30 µM | 19.4 µM | – | – | O=C(c1cc2cc(F)ccc2[nH]1)N1C[C@]2(CCN(C3CCCNC3)C2)c2ccccc21 (stereo partly specified) | – |
| > 30 µM | > 30 µM | > 30 µM | > 30 µM | > 30 µM | > 30 µM | > 30 µM | > 30 µM | > 30 µM | – | 5.25 µM | 7.8 µM (≈ 3.16 µg/mL) | 52 min | O=C(c1cc2ccc(F)cc2[nH]1)N1C[C@]2(CCN(C3CCNC3)C2)c2ccccc21 (stereo partly specified) | CL/F [14]: 5 mL/min/kg; Vdss (Rattus norvegicus): 1.6 L/kg; bioavailability [15]: 11% |
| > 30 µM | > 30 µM | > 30 µM | > 30 µM | – | > 30 µM | > 30 µM | > 30 µM | 22.7 µM | – | 23.8 µM | 11.7 µM (≈ 5.06 µg/mL) | 44 min | C[C@@H]1CCC(N2CC[C@]3(CN(C(=O)c4cc5ccc(F)cc5[nH]4)c4ccccc43)C2)CN1 (stereo partly specified) | Papp [16]: 5.13 ×10⁻⁶ cm/s; inhibition at 3 µM (CYP2D6): 94%; IC50 [17]: > 30 µM; IC50 (Aurora kinase A): > 30 µM; IC50 (Insulin receptor): > 30 µM; IC50 [18]: > 30 µM; IC50 [19]: > 30 µM; IC50 [20]: 21.9 µM |
| > 30 µM | > 30 µM | > 30 µM | > 30 µM | > 30 µM | > 30 µM | > 30 µM | > 30 µM | > 30 µM | > 30 µM | 18.4 µM | – | – | C[C@@H]1CCC(N2CC[C@]3(CN(C(=O)c4cc5ccccc5[nH]4)c4ccccc43)C2)CN1 (stereo partly specified) | – |
